The text below walks through data of ChEMBL document CHEMBL3046368, “Synthesis of benzothiazole derivatives and their biological evaluation as anticancer agents” (2012).

Assay [1] concerns the target T1, Ubiquitin-like modifier-activating enzyme 1 (Homo sapiens) (UniProt P22314).
T1 sequence (whole entry): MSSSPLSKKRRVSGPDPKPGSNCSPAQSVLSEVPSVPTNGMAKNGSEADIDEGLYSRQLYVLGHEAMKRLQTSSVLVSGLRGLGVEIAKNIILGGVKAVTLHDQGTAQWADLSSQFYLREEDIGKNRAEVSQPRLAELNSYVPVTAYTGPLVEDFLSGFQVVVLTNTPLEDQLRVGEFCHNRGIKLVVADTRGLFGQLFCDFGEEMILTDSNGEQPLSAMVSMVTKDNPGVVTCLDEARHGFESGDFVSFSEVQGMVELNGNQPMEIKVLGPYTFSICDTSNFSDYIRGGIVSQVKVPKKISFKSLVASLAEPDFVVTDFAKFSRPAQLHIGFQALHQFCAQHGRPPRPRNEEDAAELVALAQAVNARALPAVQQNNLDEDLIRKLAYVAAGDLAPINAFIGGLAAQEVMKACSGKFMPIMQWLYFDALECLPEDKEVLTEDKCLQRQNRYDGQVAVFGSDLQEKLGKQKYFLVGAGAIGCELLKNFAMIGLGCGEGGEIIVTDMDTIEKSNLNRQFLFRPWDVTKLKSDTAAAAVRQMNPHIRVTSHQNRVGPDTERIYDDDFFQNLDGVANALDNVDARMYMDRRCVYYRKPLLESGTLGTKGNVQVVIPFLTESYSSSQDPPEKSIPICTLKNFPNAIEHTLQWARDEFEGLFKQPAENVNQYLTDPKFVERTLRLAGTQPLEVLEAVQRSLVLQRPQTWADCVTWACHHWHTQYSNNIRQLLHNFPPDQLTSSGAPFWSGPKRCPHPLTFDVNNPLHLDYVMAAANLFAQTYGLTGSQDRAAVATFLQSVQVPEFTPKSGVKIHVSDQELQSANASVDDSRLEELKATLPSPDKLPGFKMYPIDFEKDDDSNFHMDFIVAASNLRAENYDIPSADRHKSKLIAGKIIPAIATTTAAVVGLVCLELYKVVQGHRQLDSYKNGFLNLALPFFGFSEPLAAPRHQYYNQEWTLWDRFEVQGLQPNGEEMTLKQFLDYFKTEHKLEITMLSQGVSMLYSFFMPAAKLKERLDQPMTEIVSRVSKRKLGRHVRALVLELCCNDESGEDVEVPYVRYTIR
In words: Inhibition of ubiquitin displacement on His6-tagged E2 enzyme from His6-tagged UBA1 (unknown origin) at 10 uM after 1.5 hr by SDS-PAGE analysis.

The nature of assay [2]: Cytotoxicity against Homo sapiens (human) ovarian cancer cells assessed as cell growth at 10^-5 M after 48 hr by SRB assay relative to control. It is filed as functional. The following applies: Cancer cell lines, read-out: Activity. (In general: In SRB staining, fixed cells bind dye roughly in proportion to their protein.)
Assay [3] in a line: Cytotoxicity against Homo sapiens (human) colon cancer cells assessed as cell growth at 10^-5 M after 48 hr by SRB assay relative to control. The following applies: Cancer cell lines, read-out: Activity. The class given is functional.
A short description of assay [4]: Cytotoxicity against Homo sapiens (human) melanoma cells assessed as cell growth at 10^-5 M after 48 hr by SRB assay relative to control. The class given is functional. The following applies: read-out: Activity.
The nature of assay [5]: Cytotoxicity against Homo sapiens (human) prostate cancer cells assessed as cell growth at 10^-5 M after 48 hr by SRB assay relative to control. It is filed as functional. Particulars: Cancer cell lines, read-out: Activity.
Assay [6] is described as follows: Cytotoxicity against Homo sapiens (human) leukemia cells assessed as cell growth at 10^-5 M after 48 hr by SRB assay relative to control. The class given is functional. The following applies: read-out: Activity.
A short description of assay [7]: Cytotoxicity against Homo sapiens (human) CNSC cells assessed as cell growth at 10^-5 M after 48 hr by SRB assay relative to control. It is filed as functional. The following applies: read-out: Activity.
The nature of assay [8]: Cytotoxicity against Homo sapiens (human) NSCLC cells assessed as cell growth at 10^-5 M after 48 hr by SRB assay relative to control. The class given is functional. Particulars: read-out: Activity.
The nature of assay [9]: Cytotoxicity against Homo sapiens (human) breast cancer cells assessed as cell growth at 10^-5 M after 48 hr by SRB assay relative to control. The class given is functional. Particulars: Cancer cell lines, read-out: Activity.
Assay [10] in a line: Cytotoxicity against Homo sapiens (human) renal cancer cells assessed as cell growth at 10^-5 M after 48 hr by SRB assay relative to control. It is filed as functional. Particulars: Cancer cell lines, read-out: Activity.
The subject of a further assay is SF-539. In words: Cytotoxicity against Homo sapiens (human) SF539 cells after 48 hr by SRB assay. The class given is functional. Particulars: SF-539, 48 h.
Another assay has as its system SN12C. Description: Cytotoxicity against Homo sapiens (human) SN12C cells after 48 hr by SRB assay. The class given is functional.
The next assay relates to SNB-75. Description: Cytotoxicity against Homo sapiens (human) SNB75 cells after 48 hr by SRB assay. Particulars: SNB-75, 48 h. The class given is functional.
For a further assay, the system named is HOP-62. In words: Cytotoxicity against Homo sapiens (human) HOP62 cells after 48 hr by SRB assay. It is filed as functional. The following applies: HOP-62, 48 h.
The subject of a further assay is COLO 205. In words: Cytotoxicity against Homo sapiens (human) COLO205 cells after 48 hr by SRB assay. The class given is functional. The following applies: COLO 205, 48 h.
The next assay concerns RPMI-8226. Description: Cytotoxicity against Homo sapiens (human) RPMI8226 cells after 48 hr by SRB assay. The class given is functional. The following applies: RPMI-8226, 48 h.
The next assay deals with SF-268. In words: Cytotoxicity against Homo sapiens (human) SF268 cells after 48 hr by SRB assay. It is filed as functional. The following applies: SF-268, 48 h.
For a further assay, the system named is MCF7. Description: Cytotoxicity against Homo sapiens (human) MCF7 cells after 48 hr by SRB assay. The class given is functional. The following applies: MCF7, 48 h.
The next assay has as its system A498. Description: Cytotoxicity against Homo sapiens (human) A498 cells after 48 hr by SRB assay. The class given is functional. The following applies: A498, 48 h.
The subject of the next assay is OVCAR-3. Description: Cytotoxicity against Homo sapiens (human) OVCAR3 cells after 48 hr by SRB assay. The class given is functional. Particulars: OVCAR-3, 48 h.

The source made the active and inactive calls. The calls are words filed in the database; no cut-off is given here.

With `COc1ccc(NC(=O)Nc2nc3ccc(OC)cc3s2)cc1`, the inhibition entry in [1] was “inactive”.

As for `COc1ccc2nc(NC(=O)c3ccc(F)cc3)sc2c1`, in [1], the inhibition entry is “inactive”.

Turning to `COc1ccc2nc(NC(=O)Nc3c(F)cccc3F)sc2c1`, the growth at 10 µM in [2] is 108%; in [3], 107%; in [4], 102%; in assay [5], 100%; in assay [6] it was 91.2%; in [7], 104%. The growth at 10 µM turned out to be 99.2% in assay [8], 107% in [9] and 97.9% in [10]. Moreover, the inhibition result in assay [1] was “inactive”.

With `O=C(Nc1nc2ccc(OC(F)(F)F)cc2s1)c1ccc(F)cc1`, the inhibition result in assay [1] was “inactive”.

In the case of `N#Cc1ccc(C(=O)Nc2nc3ccc(OC(F)(F)F)cc3s2)cc1`, the inhibition entry in assay [1] was “inactive”.

For `COc1ccc2nc(NC(=O)Nc3ccc(C#N)cc3)sc2c1`, in assay [1], the inhibition entry is “inactive”.

On to `COc1ccc2nc(NC(=O)c3ccc(C#N)cc3)sc2c1`, for which, in assay [1], the inhibition entry is “inactive”.

Regarding `O=C(Nc1nc2ccc(OC(F)(F)F)cc2s1)Nc1c(F)cccc1F`, the growth at 10 µM is 90.2% in [2]; 91.8% in assay [3]; 89.6% in assay [4]; 83.8% in [5]; 64.4% in [6]; 96% in [7]. In addition, the growth at 10 µM stood at 77.6% in [8], 89.5% in [9] and 89.4% in assay [10]. The inhibition entry in assay [1] is “inactive”.

Take `COc1ccc2nc(NC(=O)c3c(F)cccc3F)sc2c1`: the inhibition result in [1] was “inactive”.

`COc1ccc2nc(NC(=O)c3ccc(NC(C)=O)cc3)sc2c1`: the inhibition result in [1] is “inactive”.

On to `CC(=O)Nc1ccc(C(=O)Nc2nc3ccc(OC(F)(F)F)cc3s2)cc1`, for which the inhibition entry in [1] is “inactive”.

What is called GI50 is the concentration at which growth is held to half of that of the control. Low readings indicate greater sensitivity of the cells, high ones lower sensitivity of the cells. In the case of `O=c1[nH]cc(F)c(=O)[nH]1` [FLUOROURACIL], the GI50 in the assay on SF-539 is 63.1 nM; with SN12C, 501 nM; with SNB-75, 79400 nM; in the assay on HOP-62 it was 398 nM; in the assay with COLO 205, 158 nM; in the assay on RPMI-8226, 44.7 nM. Moreover, the GI50 was 1580 nM in the assay with SF-268, 79.4 nM in the assay on MCF7, 398 nM in the assay with A498 and 15.8 nM in the assay on OVCAR-3.

`O=C(Nc1nc2ccc(OC(F)(F)F)cc2s1)c1c(F)cccc1F`: the inhibition entry in assay [1] was “inactive”.

Consider `COc1ccc(C(=O)Nc2nc3ccc(OC)cc3s2)cc1`, for which, in assay [1], the inhibition result is “inactive”.

Regarding `COc1ccc(C(=O)Nc2nc3ccc(OC(F)(F)F)cc3s2)cc1`, the inhibition entry in assay [1] was “inactive”.

`COc1ccc2nc(NC(=O)Nc3ccc(F)cc3)sc2c1`: the inhibition entry in assay [1] is “inactive”.

Consider `COc1ccc(NC(=O)Nc2nc3ccc(OC(F)(F)F)cc3s2)cc1`, for which the growth at 10 µM in assay [2] amounted to 97.5%; in assay [3], 101%; in assay [4], 104%; in assay [5] it was 95.3%; in assay [6], 87%; in assay [7], 103%. Moreover, the growth at 10 µM in [8] was found to be 95.8%; in assay [9], 97.8%; in assay [10], 99.4%. Further, in [1], the inhibition entry was “inactive”.
